Tests used:
Format in all cases: cell-based
D(1A) dopamine receptor = D(1A) dopamine receptor (Homo sapiens, UniProt P21728); test: Displacement of [3H]SCH23390 from human D1 receptor expressed in HEK293 cells
D(2) dopamine receptor = D(2) dopamine receptor (Homo sapiens, UniProt P14416); test: Displacement of [3H]raclopride from human D2L receptor expressed in HEK293 cells
D(3) dopamine receptor = D(3) dopamine receptor (Homo sapiens, UniProt P35462); test: Displacement of [3H]raclopride from human D3 receptor expressed in HEK293 cells
Sequence of D(3) dopamine receptor (P35462 whole entry): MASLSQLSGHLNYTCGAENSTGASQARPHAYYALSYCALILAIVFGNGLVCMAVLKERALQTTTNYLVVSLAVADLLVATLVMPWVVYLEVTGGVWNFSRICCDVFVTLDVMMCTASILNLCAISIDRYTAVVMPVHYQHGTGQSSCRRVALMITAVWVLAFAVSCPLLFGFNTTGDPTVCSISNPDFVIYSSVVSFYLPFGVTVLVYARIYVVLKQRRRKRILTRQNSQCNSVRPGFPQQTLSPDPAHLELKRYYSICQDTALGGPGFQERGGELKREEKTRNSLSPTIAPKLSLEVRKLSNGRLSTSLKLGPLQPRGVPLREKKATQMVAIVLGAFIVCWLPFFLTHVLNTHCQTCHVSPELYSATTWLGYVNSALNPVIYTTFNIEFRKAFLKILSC

Sequence of D(2) dopamine receptor (P14416 whole entry): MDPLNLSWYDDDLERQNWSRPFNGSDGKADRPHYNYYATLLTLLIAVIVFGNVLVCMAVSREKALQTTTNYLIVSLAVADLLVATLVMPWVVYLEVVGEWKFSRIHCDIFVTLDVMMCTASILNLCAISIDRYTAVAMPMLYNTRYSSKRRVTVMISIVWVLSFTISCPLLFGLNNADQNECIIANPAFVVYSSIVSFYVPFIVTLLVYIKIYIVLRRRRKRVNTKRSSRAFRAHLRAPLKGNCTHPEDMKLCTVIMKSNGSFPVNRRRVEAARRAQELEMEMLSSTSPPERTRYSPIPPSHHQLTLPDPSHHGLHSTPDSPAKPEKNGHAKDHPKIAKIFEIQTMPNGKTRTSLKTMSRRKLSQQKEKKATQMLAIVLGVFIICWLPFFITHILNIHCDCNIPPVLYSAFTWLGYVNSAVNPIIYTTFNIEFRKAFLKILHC
Sequence of D(1A) dopamine receptor (P21728 whole entry): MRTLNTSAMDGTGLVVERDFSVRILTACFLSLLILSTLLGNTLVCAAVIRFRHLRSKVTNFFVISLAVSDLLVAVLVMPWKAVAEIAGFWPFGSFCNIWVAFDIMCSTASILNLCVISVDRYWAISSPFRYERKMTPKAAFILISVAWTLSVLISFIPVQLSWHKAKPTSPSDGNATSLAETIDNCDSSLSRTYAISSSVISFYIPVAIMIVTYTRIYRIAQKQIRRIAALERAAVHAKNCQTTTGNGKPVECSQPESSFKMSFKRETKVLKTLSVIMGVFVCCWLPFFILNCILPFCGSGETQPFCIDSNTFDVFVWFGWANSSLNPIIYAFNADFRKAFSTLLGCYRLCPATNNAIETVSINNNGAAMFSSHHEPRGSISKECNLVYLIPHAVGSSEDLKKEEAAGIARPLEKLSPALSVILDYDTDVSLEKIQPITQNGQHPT

| Ki (D(1A) dopamine receptor) | Ki (D(2) dopamine receptor) | Ki (D(3) dopamine receptor) | SMILES |
| --- | --- | --- | --- |
| 40.8 µM | 7.4 µM | 11 µM | OC[C@H]1[C@H]2CN(Cc3ccccc3)[C@H](c3ccccc3)[C@H]2[C@@H]1N1CCCC1 |
| 22 µM | 0.25 µM | 0.28 µM | OC[C@@H]1[C@@H]2CN(Cc3ccccc3)[C@@H](c3ccccc3)[C@@H]2[C@H]1N1CCCC1 |
| > 100 µM | 66 µM | 36 µM | C[C@@H]1[C@@H]2[C@H](CN1Cc1ccccc1)[C@H](CO)[C@H]2N1CCCC1 |
| > 100 µM | 16 µM | 11 µM | C[C@H]1[C@H]2[C@@H](CN1Cc1ccccc1)[C@@H](CO)[C@@H]2N1CCCC1 |
| 49 µM | 2 µM | 1.5 µM | OC[C@@H]1[C@@H]2CN(Cc3ccccc3)[C@@H](c3ccccc3)[C@@H]2[C@H]1N1CCCCC1 |

Further lines, the compound ahead of its results:

| SMILES | Ki (D(1A) dopamine receptor) | Ki (D(2) dopamine receptor) | Ki (D(3) dopamine receptor) |
| --- | --- | --- | --- |
| CCN(CC)[C@@H]1[C@@H](CO)[C@H]2CN(Cc3ccccc3)[C@H](c3ccccc3)[C@H]21 | 42 µM | 12 µM | 13.2 µM |
| CCN(CC)[C@H]1[C@H](CO)[C@@H]2CN(Cc3ccccc3)[C@@H](c3ccccc3)[C@@H]21 | 22 µM | 1.7 µM | 1.3 µM |
| CCN(CC)[C@@H]1[C@@H](CO)[C@H]2CN(Cc3ccccc3)[C@H](C)[C@H]21 | > 100 µM | 38 µM | 21 µM |
| CCN(CC)[C@H]1[C@H](CO)[C@@H]2CN(Cc3ccccc3)[C@@H](C)[C@@H]21 | > 100 µM | 3.9 µM | 1.77 µM |
| CCN(CC)[C@@H]1[C@@H](CO)[C@H]2CN(Cc3ccccc3)[C@H](c3ccc(Br)cc3)[C@H]21 | 7 µM | 5 µM | 7.93 µM |
| CCN(CC)[C@H]1[C@H](CO)[C@@H]2CN(Cc3ccccc3)[C@@H](c3ccc(Br)cc3)[C@@H]21 | 8 µM | 2 µM | 2.14 µM |
| CCN(CC)[C@@H]1[C@@H](CO)[C@H]2CN(Cc3ccccc3)[C@H](c3ccccn3)[C@H]21 | > 100 µM | 42 µM | 36 µM |
| CCN(CC)[C@H]1[C@H](CO)[C@@H]2CN(Cc3ccccc3)[C@@H](c3ccccn3)[C@@H]21 | > 100 µM | 12 µM | 8.8 µM |
| OC[C@H]1[C@H]2CN(Cc3ccccc3)[C@H](c3ccccc3)[C@H]2[C@@H]1N1CCCCC1 | 44 µM | 7 µM | 5.3 µM |
